The results in this text go back to patent publication US20220062371A1, “LIGAND-DRUG-CONJUGATES AS SUBSTRATES FOR SELECTIVE CLEAVAGE BY THE EXOPEPTIDASE ACTIVITY OF CATHEPSIN B” (DEBIOPHARM RESEARCH & MANUFACTURING S.A., priority 2017, published 2022).

Where “and” joins values, the source holds several entries; their conditions need not be identical. Equal values may be shown once. Read-outs that look alike come from different tables or passages of the source. Non-standard residues stand in square brackets, D forms with d. Residues, ends and D or L forms follow the SMILES beside them. *: point of attachment. Dolaproine = CO[C@@H]([C@@H]1CCCN1)[C@@H](C)C(=O)O; Dil = CC[C@H](C)[C@H](NC)[C@@H](CC(=O)O)OC; NMe2Val = CC(C)[C@@H](C(=O)*)N(C)C

What all share (assay): Cytotoxic activity, Alamar Blue assay
What all share (type): cell-based

Data set [1] has as its system SK-BR-3 (ErbB2-expressing) cells. The method, then: (§1) Log phase cultures of cell lines SK-OV-3 (ErbB2-expressing), SK-BR-3 (ErbB2-expressing), BT-474 (ErbB2-expressing) and MDA-MB-231 (ErbB2 negative) were collected and cells plated at seeding densities ranging from 1,500 to 12,000 cells/well in 96-well microtiter plates according to pre-determined conditions.
(§2) Assessment of cellular growth was done using Alamar Blue (available from Thermo Fisher Scientific) dye reduction assay. Alamar Blue was added to cells to constitute 10% culture volume. Cells were incubated for 4 to 6 hours, and dye reduction was measured by fluorescence on an EnSpire plate reader (Perkin Elmer). Background corrected fluorescence measurements were transformed in % scale by considering vehicle value as 100% activity (relative measurements). Next, relative measurements were analyzed using GraphPad Prism software to derive relative IC50. All experiments were done twice with 3 replicates per concentration. Error bars: SEM (n=3). Cytotoxicity of AF and AF-Arg on ErbB2-expressing SK-OV-3 and SK-BR-3 cells after 72 and 120 h of treatment. SK-OV-3 and SK-BR-3 cells were seeded the day before treatment in complete culture medium. After overnight resting, cells were treated with decreasing concentrations of test compounds in complete culture medium (AF: 10 μM-1 pM; AF-Arg: 10 μM-1 pM, log-dilution).
(§3) SK-OV-3, SK-BR-3 and MDA-MB-231 cells were seeded the day before treatment in complete culture medium.

Data set [2] relates to SK-OV-3 (ErbB2-expressing) cells. The method, then: as §1, §2, §3
Data set [3] concerns MDA-MB-231 (ErbB2 negative) cells. The following applies: read-out: Relative IC50 at 96 h (day 4). The protocol:
as §1, §2, §3
BT-474 and MDA-MB-231 cells were seeded the day before treatment in complete culture medium.

Data set [4] concerns SK-OV-3 (ErbB2-expressing) cells. To be noted: ADC1 study, read-out: Relative IC50 at 96 h (day 4).
The subject of data set [5] is SK-BR-3 (ErbB2-expressing) cells. To be noted: ADC1 study, read-out: Relative IC50 at 96 h (day 4).
The subject of data set [6] is BT-474 (ErbB2-expressing) cells. The following applies: ADC3 study, read-out: Relative IC50 at 96 h (day 4). The protocol:
as §1
as §2, with “log-dilution). […]” for “log-dilution).”

[7] abbreviates: SK-BR-3, run 1, 72 h, read-out: Relative IC50 at 72 h (day 3).
Where [8] appears, read: SK-BR-3, run 1, 120 h, read-out: Relative IC50 at 120 h (day 5).
[9] abbreviates: SK-BR-3, run 2, 72 h, read-out: Relative IC50 at 72 h (day 3).
[10] abbreviates: SK-BR-3, run 2, 120 h, read-out: Relative IC50 at 120 h (day 5).
Setting [11] is: SK-OV-3, run 1, 72 h, read-out: Relative IC50 at 72 h (day 3).
The mark [12] stands for this setting: SK-OV-3, run 1, 120 h, read-out: Relative IC50 at 120 h (day 5).
The mark [13] stands for this setting: SK-OV-3, run 2, 72 h, read-out: Relative IC50 at 72 h (day 3).
The mark [14] stands for this setting: SK-OV-3, run 2, 120 h, read-out: Relative IC50 at 120 h (day 5).

One may read the IC50 as the midpoint of a concentration-inhibition curve. Regarding AF-Arg, the IC50 is roughly 98 nM in data set [1] (setting [7]); 20.9 nM in data set [1] (setting [8]); roughly 111 nM in data set [1] (setting [9]); 24.9 nM in data set [1] (setting [10]); 180 nM in data set [2] (setting [11]); 147 nM in data set [2] (setting [12]). For the same compound, the IC50 in data set [2] (setting [13]) is 240 nM; in data set [2] (setting [14]), 205 nM; in data set [3] (MDA-MB-231, run 1, 96 h, ADC1 study), 15.2 nM; in data set [3] (MDA-MB-231, run 2, 96 h, ADC1 study), 5.84 nM; in data set [4] (SK-OV-3, run 1, 96 h), 82.6 nM; in data set [4] (SK-OV-3, run 2, 96 h), 244 nM. The IC50 in data set [5] (SK-BR-3, run 1, 96 h) is roughly 92.1 nM; in data set [5] (SK-BR-3, run 2, 96 h) it was 128 nM. In addition, the “retained cytotoxic activity relative to the native drug (AF)” value in data set [1] (SK-BR-3 cells, 120 h) is “greater than 85%”; in data set [2] (SK-OV-3 cells, 120 h), “about 70%”.

As to `COc1cc2cc(c1Cl)N(C)C(=O)C[C@H](OC(=O)[C@H](C)N(C)C(=O)CCS)[C@]1(C)O[C@H]1[C@H](C)[C@@H]1C[C@@](O)(NC(=O)O1)[C@H](OC)/C=C/C=C(\C)C2` [DM1, N2′-deacetyl-N2′-(3-mercapto-1-oxopropyl)-maytansine, reference compound], the IC50 came to 44.2 nM in data set [3] (MDA-MB-231, run 1, 96 h, ADC3 study); 57 nM in data set [3] (MDA-MB-231, run 2, 96 h, ADC3 study); 2.8 nM in data set [6] (BT-474, run 1, 96 h); 3 nM in data set [6] (BT-474, run 2, 96 h).

As for `CC[C@H](C)[C@@H]([C@@H](CC(=O)N1CCC[C@H]1[C@H](OC)[C@@H](C)C(=O)N[C@@H](Cc1ccccc1)C(=O)O)OC)N(C)C(=O)[C@@H](NC(=O)[C@H](C(C)C)N(C)C)C(C)C` [AF, Auristatin F, reference compound] (NMe2Val-V[Dil][Dolaproine]F-OH), the IC50 was 37.4 nM in data set [1] (setting [7]); 18.8 nM in data set [1] (setting [8]); 53.7 nM in data set [1] (setting [9]); 21.8 nM in data set [1] (setting [10]); 82.8 nM in data set [2] (setting [11]); 100 nM and ~100 nM in data set [2] (setting [12]). In addition, the results for the IC50 in data set [2] (setting [13]) and in data set [2] (setting [14]) were 154 nM and 145 nM, respectively.
